In ChEMBL document CHEMBL1130855, “Carbohydrate modifications in the spirostane cellobioside cholesterol absorption inhibitor series” (1998):

Legend:
Cricetinae gen. sp. [1] = test: Inhibitory activity against cholesterol absorption in the hamster.; assay type: functional
Cricetinae gen. sp. [2] = test: Inhibition of cholesterol absorption in the hamster.; assay type: functional

Structure (SMILES) | Relative potency (Cricetinae gen. sp. [1]) | ED50 (Cricetinae gen. sp. [2]) [mg/kg]
C[C@@H]1CC[C@@]2(OC1)OC1C[C@H]3[C@@H]4CC[C@H]5C[C@@H](O[C@@H]6O[C@@H](C)[C@@H](O[C@@H]7O[C@@H](CO)[C@@H](O)[C@H](O)[C@@H]7O)[C@H](O)[C@@H]6O)CC[C@]5(C)[C@H]4CC(=O)[C@]3(C)C1[C@@H]2C (stereo partly specified) | 167 | 5
C[C@@H]1CC[C@@]2(OC1)O[C@H]1C[C@H]3[C@@H]4CC[C@H]5C[C@@H](O[C@@H]6O[C@@H](CO)[C@@H](O[C@@H]7O[C@@H](C)[C@@H](O)[C@H](O)[C@@H]7O)[C@H](O)[C@@H]6O)CC[C@]5(C)[C@H]4CC(=O)[C@]3(C)[C@H]1[C@@H]2C | 107 | 3.2
C[C@@H]1CC[C@@]2(OC1)O[C@H]1C[C@H]3[C@@H]4CC[C@H]5C[C@@H](O[C@@H]6O[C@@H](COC(=O)Nc7ccccc7F)[C@@H](O[C@@H]7O[C@@H](COC(=O)Nc8ccccc8F)[C@@H](OC(=O)Nc8ccccc8F)[C@H](O)[C@@H]7O)[C@H](O)[C@@H]6O)CC[C@]5(C)[C@H]4C(=O)C[C@]3(C)[C@H]1[C@@H]2C | 8 | 0.2
C[C@@H]1CC[C@@]2(OC1)O[C@H]1C[C@H]3[C@@H]4CC[C@H]5C[C@@H](O[C@@H]6O[C@@H](CO)[C@@H](O[C@@H]7O[C@@H](CO)[C@@H](OC(=O)Nc8ccccc8F)[C@H](O)[C@@H]7O)[C@H](O)[C@@H]6O)CC[C@]5(C)[C@H]4C(=O)C[C@]3(C)[C@H]1[C@@H]2C | 4 | 0.1
C[C@@H]1CC[C@@]2(OC1)O[C@H]1C[C@H]3[C@@H]4CC[C@H]5C[C@@H](O[C@@H]6O[C@@H](CO)[C@@H](O[C@@H]7O[C@@H](COC(=O)Nc8ccccc8F)[C@@H](O)[C@H](O)[C@@H]7O)[C@H](O)[C@@H]6O)CC[C@]5(C)[C@H]4C(=O)C[C@]3(C)[C@H]1[C@@H]2C | 8 | 0.2
C[C@@H]1CC[C@@]2(OC1)O[C@H]1C[C@H]3[C@@H]4CC[C@H]5C[C@@H](O[C@@H]6O[C@@H](CO)[C@@H](O[C@@H]7O[C@@H](C)C[C@H](O)[C@@H]7O)[C@H](O)[C@@H]6O)CC[C@]5(C)[C@H]4CC(=O)[C@]3(C)[C@H]1[C@@H]2C | 100 | 3
C[C@@H]1CC[C@@]2(OC1)O[C@H]1C[C@H]3[C@@H]4CC[C@H]5C[C@@H](O[C@@H]6O[C@@H](C)[C@@H](O[C@@H]7O[C@@H](C)[C@@H](O)[C@H](O)[C@@H]7O)[C@H](O)[C@@H]6O)CC[C@]5(C)[C@H]4CC(=O)[C@]3(C)[C@H]1[C@@H]2C | 167 | 5
C[C@@H]1CC[C@@]2(OC1)O[C@H]1C[C@H]3[C@@H]4CC[C@H]5C[C@@H](O[C@@H]6O[C@@H](CO)[C@@H](O[C@@H]7O[C@@H](CO)C[C@H](O)[C@@H]7O)[C@H](O)[C@@H]6O)CC[C@]5(C)[C@H]4CC(=O)[C@]3(C)[C@H]1[C@@H]2C | 433 | 13
C[C@@H]1CC[C@@]2(OC1)O[C@H]1C[C@H]3[C@@H]4CC[C@H]5C[C@@H](O[C@@H]6O[C@@H](CO)[C@@H](O[C@@H]7O[C@@H](COC(=O)Nc8ccccc8F)[C@@H](OC(=O)Nc8ccccc8F)[C@H](O)C7O)[C@H](O)[C@@H]6O)CC[C@]5(C)[C@H]4CC(=O)[C@]3(C)[C@H]1[C@@H]2C (stereo partly specified) | 2.3 | 0.07
C[C@@H]1CC[C@@]2(OC1)O[C@H]1C[C@H]3[C@@H]4CC[C@H]5C[C@@H](O[C@@H]6O[C@@H](CO)[C@@H](O[C@@H]7O[C@@H](COC(=O)Nc8ccccc8F)[C@@H](OC(=O)Nc8ccccc8F)[C@H](O)C7O)[C@H](O)[C@@H]6O)CC[C@]5(C)[C@H]4C(=O)C[C@]3(C)[C@H]1[C@@H]2C (stereo partly specified) | 1 | 0.025
C[C@@H]1CC[C@@]2(OC1)O[C@H]1C[C@H]3[C@@H]4CC[C@H]5C[C@@H](O[C@@H]6O[C@@H](COC(=O)Nc7ccccc7F)C(O[C@@H]7O[C@@H](CO)C(O)[C@H](O)C7O)[C@H](O)C6O)CC[C@]5(C)[C@H]4C(=O)C[C@]3(C)[C@H]1[C@@H]2C (stereo partly specified) | 280 | 7
C[C@@H]1CC[C@@]2(OC1)O[C@H]1C[C@H]3[C@@H]4CC[C@H]5C[C@@H](O[C@@H]6O[C@@H](CO)[C@@H](O[C@@H]7O[C@@H](COC(=O)Nc8ccccc8F)C[C@H](O)[C@@H]7O)[C@H](O)[C@@H]6O)CC[C@]5(C)[C@H]4CC(=O)[C@]3(C)[C@H]1[C@@H]2C | 5 | 0.15
C[C@@H]1CC[C@@]2(OC1)O[C@H]1C[C@H]3[C@@H]4CC[C@H]5C[C@@H](O[C@@H]6O[C@@H](COC(=O)Nc7ccccc7F)[C@@H](O[C@@H]7O[C@@H](COC(=O)Nc8ccccc8F)[C@@H](O)[C@H](O)[C@@H]7O)[C@H](O)[C@@H]6O)CC[C@]5(C)[C@H]4C(=O)C[C@]3(C)[C@H]1[C@@H]2C | 32 | 0.8
C[C@@H]1CC[C@@]2(OC1)O[C@H]1C[C@H]3[C@@H]4CC[C@H]5C[C@@H](O[C@@H]6O[C@@H](CO)[C@@H](O[C@@H]7O[C@@H](CO)[C@@H](OC(=O)Nc8ccccc8F)[C@H](OC(=O)Nc8ccccc8F)[C@@H]7O)[C@H](O)[C@@H]6O)CC[C@]5(C)[C@H]4C(=O)C[C@]3(C)[C@H]1[C@@H]2C | 4 | 0.1
C[C@@H]1CC[C@@]2(OC1)O[C@H]1C[C@H]3[C@@H]4CC[C@H]5C[C@@H](O[C@@H]6O[C@@H](CO)[C@@H](O[C@@H]7O[C@@H](CO)[C@@H](OC(=O)Nc8ccccc8F)[C@H](O)[C@@H]7O)[C@H](O)[C@@H]6O)CC[C@]5(C)[C@H]4CC(=O)[C@]3(C)[C@H]1[C@@H]2C | 5 | 0.15
C[C@@H]1CC[C@@]2(OC1)O[C@H]1C[C@H]3[C@@H]4CC[C@H]5C[C@@H](O[C@@H]6O[C@@H](CO)[C@@H](O[C@@H]7O[C@@H](COC(=O)Nc8ccccc8F)[C@@H](O)[C@H](O)[C@@H]7O)[C@H](O)[C@@H]6O)CC[C@]5(C)[C@H]4CC(=O)[C@]3(C)[C@H]1[C@@H]2C | 10 | 0.3
C[C@@H]1CC[C@@]2(OC1)O[C@H]1C[C@H]3[C@@H]4CC[C@H]5C[C@@H](O[C@@H]6O[C@@H](CO)[C@@H](O[C@@H]7O[C@@H](C)[C@@H](OC(=O)Nc8ccccc8F)[C@H](O)[C@@H]7O)[C@H](O)[C@@H]6O)CC[C@]5(C)[C@H]4CC(=O)[C@]3(C)[C@H]1[C@@H]2C | 1 | 0.03
C[C@@H]1CC[C@@]2(OC1)O[C@H]1C[C@H]3[C@@H]4CC[C@H]5C[C@@H](O[C@@H]6O[C@@H](CO)[C@@H](O[C@@H]7O[C@@H](CO)[C@@H](O)[C@H](O)[C@@H]7O)[C@H](O)[C@@H]6O)CC[C@]5(C)[C@H]4CC(=O)[C@]3(C)[C@H]1[C@@H]2C [CELLOBIOSYL HECOGENIN] | 333 | 10
